The structures appear in SMILES notation.

For the molecule `*C(=O)c1ccc(C(=O)c2ccc(Oc3ccc(C(C)(C)c4ccc(Oc5ccc(*)s5)cc4)cc3)s2)cc1` (repeat unit), the glass transition temperature stood at 154.00 °C.

`*C(=O)c1ccc(Oc2ccc(C(C)(C)c3ccc(Oc4ccc(*)s4)cc3)cc2)s1` (repeat unit) registered a glass transition temperature of 124.00 °C.

Molecule `*C(=O)c1ccc(Oc2ccc(C(C)(C)c3ccc(Oc4ccc(C(=O)c5ccc6c(c5)C(=O)N(c5ccc(Oc7ccc(N8C(=O)c9ccc(*)cc9C8=O)cc7)cc5)C6=O)cc4)cc3)cc2)cc1` (repeat unit) displayed a glass transition temperature of 217.00 °C.

As to `*C(=O)c1ccc(Oc2ccc(C3(c4ccc(Oc5ccc(C(=O)c6ccc7c(c6)C(=O)N(c6ccc(Oc8ccc(N9C(=O)c%10ccc(*)cc%10C9=O)cc8)cc6)C7=O)cc5)cc4)OC(=O)c4ccccc43)cc2)cc1` (repeat unit), the glass transition temperature worked out at 260.00 °C.

Turning to `*C(=O)c1ccc2nc(-c3ccc(-c4cnc5cc(*)ccc5n4)cc3)cnc2c1` (repeat unit), the glass transition temperature stood at 318.00 °C.

For the molecule `*C(=O)c1ccc2nc(-c3ccccc3)c(-c3ccc(-c4nc5cc(*)ccc5nc4-c4ccccc4)cc3)nc2c1` (repeat unit), the glass transition temperature was 325.00 °C.

Turning to `*C(=O)c1ccc2nc(-c3ccccc3)c(-c3ccc(-c4nc5ccc(*)cc5nc4-c4ccccc4)cc3)nc2c1` (repeat unit), the glass transition temperature was determined as 320.00 °C.

Turning to `*C(=O)c1ccc2nc(-c3ccccc3)c(-c3ccc(Oc4ccc(-c5nc6cc(*)ccc6nc5-c5ccccc5)cc4)cc3)nc2c1` (repeat unit), the glass transition temperature turned out to be 271.00 °C.

For the molecule `*C(=O)c1ccc2ncc(-c3ccc(-c4cnc5ccc(*)cc5n4)cc3)nc2c1` (repeat unit), the glass transition temperature came to 318.00 °C.

`*Oc1ccc(-c2ccc(Oc3ccc(C(=O)c4ccc5cc(C(=O)c6ccc(*)cc6)ccc5c4)cc3)cc2)cc1` (repeat unit): the glass transition temperature is 195.00 °C.

In the case of `*Oc1ccc(/C=C/C(=O)c2ccc(Oc3ccc(C(C)(C)c4ccc(*)c(C)c4)cc3C)cc2)cc1` (repeat unit), the glass transition temperature was 157.00 °C.

As for `*Oc1ccc(/C=N/N=C/c2ccc(Oc3ccc(C(c4ccc(*)cc4)(C(F)(F)F)C(F)(F)F)cc3)cc2)cc1` (repeat unit), the glass transition temperature worked out at 162.00 °C.

For `*Oc1ccc(/N=C(\c2ccccc2)c2ccc(Oc3ccc(C(C)(C)c4ccc(Oc5ccc(/C(=N/c6ccc(*)cc6)c6ccccc6)cc5)cc4)cc3)cc2)cc1` (repeat unit), the glass transition temperature turned out to be 155.00 °C.

Consider `*Oc1ccc(C(=O)c2ccccc2)c(-c2cc(Oc3ccc(C(C)(C)c4ccc(*)cc4)cc3)ccc2C(=O)c2ccccc2)c1` (repeat unit), for which the glass transition temperature is 156.00 °C.

`*Oc1ccc(C(C)(C)c2ccc(C(C)(C)c3ccc(Oc4ccc(C(=O)Nc5ccc(Cc6ccc(NC(=O)c7ccc(*)cc7)cc6)cc5)cc4)cc3)cc2)cc1` (repeat unit) gave a glass transition temperature of 162.00 °C.

Turning to `*Oc1ccc(C(C)(C)c2ccc(C(C)(C)c3ccc(Oc4ccc(C(=O)Nc5cccc(NC(=O)c6ccc(*)cc6)c5)cc4)cc3)cc2)cc1` (repeat unit), the glass transition temperature stood at 173.00 °C.

Molecule `*Oc1ccc(C(C)(C)c2ccc(Oc3ccc(C(=O)c4c(C(=O)c5ccc(*)cc5)c(-c5ccccc5)c(-c5ccc6ccccc6c5)c(-c5ccc6ccccc6c5)c4-c4ccccc4)cc3)cc2)cc1` (repeat unit) displayed a glass transition temperature of 264.00 °C.

Consider `*Oc1ccc(C(C)(C)c2ccc(Oc3ccc(C(=O)c4ccc(*)c(S(=O)(=O)O)c4)cc3S(=O)(=O)O)cc2)cc1` (repeat unit), for which the glass transition temperature was determined as 175.00 °C.

Turning to `*Oc1ccc(C(C)(C)c2ccc(Oc3ccc(C(=O)c4ccc(*)cc4)cc3)cc2)cc1` (repeat unit), the glass transition temperature was 155.00 °C.

The molecule `*Oc1ccc(C(C)(C)c2ccc(Oc3ccc(C(=O)c4ccc(C(=O)c5ccc(*)cc5)cc4)cc3)cc2)cc1` (repeat unit) came in with a glass transition temperature of 160.00 °C.

`*Oc1ccc(C(C)(C)c2cccc(C(C)(C)c3ccc(Oc4ccc(C(=O)Nc5cccc(NC(=O)c6ccc(*)cc6)c5)cc4)cc3)c2)cc1` (repeat unit): the glass transition temperature came out at 155.00 °C.

As for `*Oc1ccc(C2(c3ccc(OC(=O)c4ccc(Oc5ccc(C6(c7ccc(Oc8ccc(C(*)=O)cc8)cc7)CCC(C(C)(C)C)CC6)cc5)cc4)cc3)C3CC4CC(C3)CC2C4)cc1` (repeat unit), the glass transition temperature turned out to be 197.00 °C.

As for `*Oc1ccc(C2(c3ccc(Oc4ccc(C(=O)Oc5ccc(C6(c7ccc(OC(=O)c8ccc(*)cc8)cc7)CCC(c7ccccc7)CC6)cc5)cc4)cc3)CCC(C(C)(C)C)CC2)cc1` (repeat unit), the glass transition temperature is 172.00 °C.

Take `*Oc1ccc(NC(=O)c2ccc(Oc3ccc(C(C)(C)c4cccc(C(C)(C)c5ccc(Oc6ccc(C(=O)Nc7ccc(*)cc7)cc6)cc5)c4)cc3)cc2)cc1` (repeat unit): the glass transition temperature was 155.00 °C.

`*Oc1ccc(NC(=O)c2ccc(Oc3ccc(C(C)(C)c4cccc(C(C)(C)c5ccc(Oc6ccc(C(=O)Nc7ccc(Oc8ccc(C(c9ccc(*)cc9)(C(F)(F)F)C(F)(F)F)cc8)cc7)cc6)cc5)c4)cc3)cc2)cc1` (repeat unit) had a glass transition temperature of 154.00 °C.

`*Oc1ccc(Oc2ccc(NC(=O)c3ccc(Oc4ccc(C(C)(C)c5cccc(C(C)(C)c6ccc(Oc7ccc(C(=O)Nc8ccc(*)cc8)cc7)cc6)c5)cc4)cc3)cc2)cc1` (repeat unit): the glass transition temperature was 147.00 °C.

As to `*Oc1ccc(S(=O)(=O)c2ccc(Oc3ccc(-c4ccc(*)cc4)cc3)cc2)cc1` (repeat unit), the glass transition temperature stood at 221.00 °C.

Turning to `*Oc1ccc(S(=O)(=O)c2ccc(Oc3ccc(C(C)(C)c4ccc(Oc5ccc(C(=O)c6ccc(*)cc6)cc5)cc4)cc3)cc2)cc1` (repeat unit), the glass transition temperature was found to be 175.00 °C.

`*Oc1ccc(S(=O)(=O)c2ccc(Oc3ccc(NC(=O)c4ccc(Oc5ccc(C(C)(C)c6ccc(C(C)(C)c7ccc(Oc8ccc(C(=O)Nc9ccc(*)cc9)cc8)cc7)cc6)cc5)cc4)cc3)cc2)cc1` (repeat unit) displayed a glass transition temperature of 177.00 °C.

`*Oc1cccc2ccc(Oc3ccc(NC(=O)c4ccc(Oc5ccc(C(C)(c6ccccc6)c6ccc(Oc7ccc(C(=O)Nc8ccc(*)cc8)cc7)cc6)cc5)cc4)cc3)cc12` (repeat unit) registered a glass transition temperature of 212.00 °C.

`*c1ccc(-c2nc3cc(C(=O)c4ccc5nc(-c6ccccc6)c(-c6ccc(-n7c(=O)c8cc9c(=O)n(*)c(=O)c9cc8c7=O)cc6)nc5c4)ccc3nc2-c2ccccc2)cc1` (repeat unit): the glass transition temperature amounted to 240.00 °C.

Regarding `*c1ccc(Oc2ccc(-c3cccc(-c4ccc(Oc5ccc(-c6c7c(c(*)c8ccccc68)C(=O)N(c6ccccc6)C7=O)cc5)c(C(F)(F)F)c4)n3)cc2C(F)(F)F)cc1` (repeat unit), the glass transition temperature worked out at 298.00 °C.

The molecule `*c1ccc(Oc2ccc(-c3cnc4cc(-c5ccc6nc(*)cnc6c5)ccc4n3)cc2)cc1` (repeat unit) displayed a glass transition temperature of 334.00 °C.

Molecule `*c1ccc(Oc2ccc(-c3cnc4ccc(Oc5ccc6nc(*)cnc6c5)cc4n3)cc2)cc1` (repeat unit) had a glass transition temperature of 270.00 °C.

For `*c1ccc(Oc2ccc(-c3nc4cc5sc(*)nc5cc4s3)cc2)cc1` (repeat unit), the glass transition temperature is 350.00 °C.

As for `*c1ccc(Oc2ccc(-n3c(=O)c4c(Oc5ccc(OCCCCCCCCCCCC)cc5)c5c(=O)n(*)c(=O)c5c(Oc5ccc(OCCCCCCCCCCCC)cc5)c4c3=O)cc2)cc1` (repeat unit), the glass transition temperature is 218.00 °C.

For `*c1ccc(Oc2ccc(-n3c(=O)c4cc5c(=O)n(*)c(=O)c5cc4c3=O)cc2-c2ccccc2)cc1` (repeat unit), the glass transition temperature worked out at 329.00 °C.

Molecule `*c1ccc(Oc2ccc(-n3c(=O)c4cc5c(=O)n(-c6ccc(Oc7ccc(-c8nc9cc%10sc(*)nc%10cc9s8)cc7)cc6)c(=O)c5cc4c3=O)cc2)cc1` (repeat unit) yielded a glass transition temperature of 400.00 °C.

Molecule `*c1ccc(Oc2ccc(C(=O)c3ccc4cc(C(=O)c5ccc(Oc6ccc(-c7nc(-c8ccccc8)[nH]c7*)cc6)cc5)ccc4c3)cc2)cc1` (repeat unit) gave a glass transition temperature of 248.00 °C.

In the case of `*c1ccc(Oc2ccc(C(=O)c3cccc(C(=O)c4ccc(Oc5ccc(-c6c7c(c(*)c8ccccc68)C(=O)N(C)C7=O)cc5)cc4)c3)cc2)cc1` (repeat unit), the glass transition temperature worked out at 251.00 °C.

Molecule `*c1ccc(Oc2ccc(C(C)(C)c3ccc(Oc4ccc(-c5nnc(*)c6c(-c7ccccc7)c(-c7ccc8ccccc8c7)c(-c7ccc8ccccc8c7)c(-c7ccccc7)c56)cc4)cc3)cc2)cc1` (repeat unit) returned a glass transition temperature of 290.00 °C.

Molecule `*c1ccc(Oc2ccc(C(C)(C)c3ccc(Oc4ccc(-c5nnc(*)o5)cc4)cc3)cc2)cc1` (repeat unit) displayed a glass transition temperature of 180.00 °C.

Take `*c1ccc(Oc2ccc(C(c3ccc(Oc4ccc(-c5nc(-c6ccccn6)nnc5*)cc4)cc3)(C(F)(F)F)C(F)(F)F)cc2)cc1` (repeat unit): the glass transition temperature worked out at 224.00 °C.

Regarding `*c1ccc(Oc2ccc(C(c3ccc(Oc4ccc(-c5nnc(*)n5-c5ccccc5)cc4)cc3)(C(F)(F)F)C(F)(F)F)cc2)cc1` (repeat unit), the glass transition temperature was found to be 203.00 °C.

Molecule `*c1ccc(Oc2ccc(S(=O)(=O)c3ccc(Oc4ccc(-c5nc(-c6ccc(-c7nc(*)c(-c8ccccc8)[nH]7)cc6)[nH]c5-c5ccccc5)cc4)cc3)cc2)cc1` (repeat unit) displayed a glass transition temperature of 301.00 °C.

As for `*c1ccc(Oc2ccc(S(=O)(=O)c3ccc(Oc4ccc(-c5nc(-c6ccccc6)[nH]c5*)cc4)cc3)cc2)cc1` (repeat unit), the glass transition temperature turned out to be 277.00 °C.

As for `*c1ccc(Oc2ccc(S(=O)(=O)c3ccc(Oc4ccc(-c5nc(-c6ccccn6)nnc5*)cc4)cc3)cc2)cc1` (repeat unit), the glass transition temperature was 265.00 °C.

Molecule `*c1ccc(Oc2ccc(S(=O)(=O)c3ccc(Oc4ccc(-c5ncc(*)o5)cc4C(F)(F)F)cc3)cc2)c(C(F)(F)F)c1` (repeat unit) yielded a glass transition temperature of 210.00 °C.

For the molecule `*c1ccc(S(=O)(=O)c2ccc(-n3nc(-c4ccc(Oc5ccc(-c6nn(*)c(=O)c7ccccc67)cc5)cc4)c4ccccc4c3=O)cc2)cc1` (repeat unit), the glass transition temperature was found to be 295.00 °C.
